In patent US20170260178A1 (SPERO GYRASE, INC., priority 2012, published 2017):

Key:
[1] = test system: S. aureus (ATCC 29213); assay: Bacterial assay: MIC against S. aureus; format: cell-based, Staphylococcus aureus; settings: Staphylococcus aureus, ATCC29213, read-out: minimal inhibitory concentration (MIC)
[2] = test system: S. pyogenes (ATCC 51339); assay: Bacterial assay: MIC against S. pyogenes; format: cell-based, Streptococcus pyogenes; settings: Streptococcus pyogenes, ATCC51339, read-out: minimal inhibitory concentration (MIC)
[3] = test system: H. influenzae (ATCC 49247); assay: Bacterial assay: MIC against H. influenzae; format: cell-based; settings: Haemophilus influenzae, ATCC49247; H. influenzae ATCC 49247; read-out: minimal inhibitory concentration (MIC)

| Compound | MIC [1] [µg/mL] | MIC [2] [µg/mL] | MIC [3] [µg/mL] |
| --- | --- | --- | --- |
| CCNC(=O)Nc1nc2cc(-c3cnc(N4CCC(C)(C(=O)O)CC4)nc3)cc(-c3cc(C(C)(C)O)ccn3)c2s1 [Compound 74, 1-[5-[2-(ethylcarbamoylamino)-7-[4-(1-hydroxy-1-methyl-ethyl)-2-pyridyl]-1,3-benzothiazol-5-yl]pyrimidin-2-yl]-4-methyl-piperidine-4-carboxylic acid] | ≤ 1 | ≤ 1 | ≤ 2 |
| CCNC(=O)Nc1nc2cc(-c3ccc(C(O)C(F)(F)F)nc3)cc(-c3cc(OCCN4CCOCC4)ccn3)c2s1 (stereo not drawn) [Compound 116, 1-ethyl-3-[7-[4-(2-morpholinoethoxy)-2-pyridyl]-5-[6-(2,2,2-trifluoro-1-hydroxy-ethyl)-3-pyridyl]-1,3-benzothiazol-2-yl]urea] | ≤ 1 | ≤ 1 | ≤ 2 |
| CCNC(=O)Nc1nc2cc(-c3cnc([C@@]4(O)CCOC[C@H]4O)nc3)cc(-c3ccccn3)c2s1 (relative stereo) [Compound 8, 1-[5-[2-[(3R*,4S*)-3,4-dihydroxytetrahydropyran-4-yl]pyrimidin-5-yl]-7-(2-pyridyl)-1,3-benzothiazol-2-yl]-3-ethyl-urea] | ≤ 1 | ≤ 1 | ≤ 2 |
| CCNC(=O)Nc1nc2cc(-c3cnc(C(C)O)nc3)cc(-c3cc(CN4CC(OC)C4)ccn3)c2s1 (stereo not drawn) [Compound 76, 1-ethyl-3-[5-[2-(1-hydroxyethyl)pyrimidin-5-yl]-7-[4-[(3-methoxyazetidin-1-yl)methyl]-2-pyridyl]-1,3-benzothiazol-2-yl]urea] | ≤ 1 | ≤ 1 | ≤ 2 |
| CCNC(=O)Nc1nc2cc(-c3cnc(C4(O)CCSCC4)nc3)cc(-c3ccccn3)c2s1 [Compound 127, 1-ethyl-3-[5-[2-(4-hydroxytetrahydrothiopyran-4-yl)pyrimidin-5-yl]-7-(2-pyridyl)-1,3-benzothiazol-2-yl]urea] | ≤ 1 | ≤ 1 | ≤ 2 |
| CCNC(=O)Nc1nc2cc(-c3cnc([C@H](C)O)nc3)cc(-c3cc(CN4CCOCC4)ccn3)c2s1 [Compound 122, 1-ethyl-3-[5-[2-[(1S)-1-hydroxyethyl]pyrimidin-5-yl]-7-[4-(morpholinomethyl)-2-pyridyl]-1,3-benzothiazol-2-yl]urea] | ≤ 1 | ≤ 1 | ≤ 2 |
| CCNC(=O)Nc1nc2cc(-c3cnc(C(C)(C)O)nc3)cc(-c3ccc(OCCN4CCOCC4)cn3)c2s1 [Compound 56, 1-ethyl-3-[5-[2-(1-hydroxy-1-methyl-ethyl)pyrimidin-5-yl]-7-[5-(2-morpholinoethoxy)-2-pyridyl]-1,3-benzothiazol-2-yl]urea] | ≤ 1 | ≤ 1 | ≤ 2 |
| CCNC(=O)Nc1nc2cc(-c3cnc([C@@H](C)O)nc3)cc(-c3cc(CN4CCOCC4)ccn3)c2s1 [Compound 121, 1-ethyl-3-[5-[2-[(1R)-1-hydroxyethyl]pyrimidin-5-yl]-7-[4-(morpholinomethyl)-2-pyridyl]-1,3-benzothiazol-2-yl]urea] | ≤ 1 | ≤ 1 | ≤ 2 |
| CCNC(=O)Nc1nc2cc(-c3cnc(C(C)O)cn3)cc(-c3ccccn3)c2s1 (stereo not drawn) [Compound 6, 1-ethyl-3-[5-[5-(1-hydroxyethyl)pyrazin-2-yl]-7-(2-pyridyl)-1,3-benzothiazol-2-yl]urea] | ≤ 1 | ≤ 1 | ≤ 2 |
| CCNC(=O)Nc1nc2cc(-c3cnc([C@@H](O)[C@H](O)C(F)(F)F)nc3)cc(-c3ccccn3)c2s1 (relative stereo) [Compound 131, 1-ethyl-3-[7-(2-pyridyl)-5-[2-[(1R*,2S*)-3,3,3-trifluoro-1,2-dihydroxy-propyl]pyrimidin-5-yl]-1,3-benzothiazol-2-yl]urea] | ≤ 1 | ≤ 1 | ≤ 2 |
| CCNC(=O)Nc1nc2cc(-c3cnc(C(O)C4CC4)nc3)cc(-c3ccccn3)c2s1 (stereo not drawn) [Compound 58, 1-[5-[2-[cyclopropyl(hydroxy)methyl]pyrimidin-5-yl]-7-(2-pyridyl)-1,3-benzothiazol-2-yl]-3-ethyl-urea] | ≤ 1 | ≤ 1 | ≤ 2 |
| CCNC(=O)Nc1nc2cc(-c3cnc([C@@H](C)OC(=O)[C@H](N)C(C)C)nc3)cc(-c3ccccn3)c2s1 [Compound 62, [(1R)-1-[5-[2-(ethylcarbamoylamino)-7-(2-pyridyl)-1,3-benzothiazol-5-yl]pyrimidin-2-yl]ethyl] (2R)-2-amino-3-methyl-butanoate] | ≤ 1 | ≤ 1 | ≤ 2 |
| CCNC(=O)Nc1nc2cc(-c3cnc(C(C)(C)O)nc3)cc(-c3cc(CN4CC(O)C4)ccn3)c2s1 [Compound 30, 1-ethyl-3-[7-[4-[(3-hydroxyazetidin-1-yl)methyl]-2-pyridyl]-5-[2-(1-hydroxy-1-methyl-ethyl)pyrimidin-5-yl]-1,3-benzothiazol-2-yl]urea] | ≤ 1 | ≤ 1 | ≤ 2 |
| CCNC(=O)Nc1nc2cc(-c3cnc(C(O)CC)nc3)cc(-c3ccccn3)c2s1 (stereo not drawn) [Compound 59, 1-ethyl-3-[5-[2-(1-hydroxypropyl)pyrimidin-5-yl]-7-(2-pyridyl)-1,3-benzothiazol-2-yl]urea] | ≤ 1 | ≤ 1 | ≤ 2 |
| CCNC(=O)Nc1nc2cc(-c3cnc(C(C)(C)O)nc3)cc(-c3cc(CN4CC(C)(OC)C4)ccn3)c2s1 [Compound 114, 1-ethyl-3-[5-[2-(1-hydroxy-1-methyl-ethyl)pyrimidin-5-yl]-7-[4-[(3-methoxy-3-methyl-azetidin-1-yl)methyl]-2-pyridyl]-1,3-benzothiazol-2-yl]urea] | ≤ 1 | ≤ 1 | ≤ 2 |
| CCNC(=O)Nc1nc2cc(-c3cnc(C(C)(C)O)nc3)cc(-c3cnccn3)c2s1 [Compound 39, 1-ethyl-3-[5-[2-(1-hydroxy-1-methyl-ethyl)pyrimidin-5-yl]-7-pyrazin-2-yl-1,3-benzothiazol-2-yl]urea] | ≤ 1 | ≤ 1 | ≤ 2 |
| CCNC(=O)Nc1nc2cc(-c3cnc(C(C)O)nc3)cc(-c3cc(OCCN4CCOCC4)ccn3)c2s1 (stereo not drawn) [Compound 75, 1-ethyl-3-[5-[2-(1-hydroxyethyl)pyrimidin-5-yl]-7-[4-(2-morpholinoethoxy)-2-pyridyl]-1,3-benzothiazol-2-yl]urea] | ≤ 1 | ≤ 1 | ≤ 2 |
| CCNC(=O)Nc1nc2cc(-c3cnc(C(C)(C)O)nc3)cc(-c3cc(C)ncn3)c2s1 [Compound 43, 1-ethyl-3-[5-[2-(1-hydroxy-1-methyl-ethyl)pyrimidin-5-yl]-7-(6-methylpyrimidin-4-yl)-1,3-benzothiazol-2-yl]urea] | ≤ 1 | ≤ 1 | ≤ 2 |
| CCNC(=O)Nc1nc2cc(-c3cnc(C(C)O)nc3)cc(-c3cc(CN4CCOCC4)ccn3)c2s1 (stereo not drawn) [Compound 55, 1-ethyl-3-[5-[2-(1-hydroxyethyl)pyrimidin-5-yl]-7-[4-(morpholinomethyl)-2-pyridyl]-1,3-benzothiazol-2-yl]urea] | ≤ 1 | ≤ 1 | ≤ 2 |
| CCNC(=O)Nc1nc2cc(-c3cnc(N4CCC(C)(C(=O)O)CC4)nc3)cc(-c3cc(C(C)O)ccn3)c2s1 (stereo not drawn) [Compound 88, 1-[5-[2-(ethylcarbamoylamino)-7-[4-(1-hydroxyethyl)-2-pyridyl]-1,3-benzothiazol-5-yl]pyrimidin-2-yl]-4-methyl-piperidine-4-carboxylic acid] | ≤ 1 | ≤ 1 | ≤ 2 |
| CCNC(=O)Nc1nc2cc(-c3cnc(C(C)(C)O)nc3)cc(-c3cc(CN4CCSCC4)ccn3)c2s1 [Compound 187, 1-ethyl-3-[5-[2-(1-hydroxy-1-methyl-ethyl)pyrimidin-5-yl]-7-[4-(thiomorpholinomethyl)-2-pyridyl]-1,3-benzothiazol-2-yl]urea] | ≤ 1 | ≤ 1 | ≤ 2 |
| CCNC(=O)Nc1nc2cc(-c3cnc(C(C)(C)O)nc3)cc(-c3ncccn3)c2s1 [Compound 10, 1-ethyl-3-[5-[2-(1-hydroxy-1-methyl-ethyl)pyrimidin-5-yl]-7-pyrimidin-2-yl-1,3-benzothiazol-2-yl]urea] | ≤ 1 | ≤ 1 | ≤ 2 |
| CCCC(O)c1ncc(-c2cc(-c3ccccn3)c3sc(NC(=O)NCC)nc3c2)cn1 (stereo not drawn) [Compound 61, 1-ethyl-3-[5-[2-(1-hydroxybutyl)pyrimidin-5-yl]-7-(2-pyridyl)-1,3-benzothiazol-2-yl]urea] | ≤ 1 | ≤ 1 | ≤ 2 |
| CCNC(=O)Nc1nc2cc(-c3cnc(C(C)(C)O)nc3)cc(-c3cc(CN4CC[C@H](F)C4)ccn3)c2s1 [Compound 35, 1-ethyl-3-[7-[4-[[(3S)-3-fluoropyrrolidin-1-yl]methyl]-2-pyridyl]-5-[2-(1-hydroxy-1-methyl-ethyl)pyrimidin-5-yl]-1,3-benzothiazol-2-yl]urea] | ≤ 1 | ≤ 1 | ≤ 2 |
| CNC(=O)Nc1nc2cc(-c3cnc(C(C)O)nc3)cc(-c3ccccn3)c2s1 (stereo not drawn) [Compound 83, 1-[5-[2-(1-hydroxyethyl)pyrimidin-5-yl]-7-(2-pyridyl)-1,3-benzothiazol-2-yl]-3-methyl-urea] | ≤ 1 | ≤ 1 | ≤ 2 |
| CCNC(=O)Nc1nc2cc(-c3cnc(C(C)(C)O)nc3)cc(-c3cc(OCCOC)ccn3)c2s1 [Compound 80, 1-ethyl-3-[5-[2-(1-hydroxy-1-methyl-ethyl)pyrimidin-5-yl]-7-[4-(2-methoxyethoxy)-2-pyridyl]-1,3-benzothiazol-2-yl]urea] | ≤ 1 | ≤ 1 | ≤ 2 |
